Data as given in patent US20230406856A1, “SUBSTITUTED PYRROLO [2, 3-b] PYRIDINE AND PYRAZOLO [3, 4-b] PYRIDINE DERIVATIVES AS PROTEIN KINASE INHIBITORS” (Fochon Biosciences, Ltd., priority 2020, published 2023).

Assays:
[1] = target: BTK (C481S) (Homo sapiens (Human), UniProt Q06187, C481S); test: Kinase assay of BTK (C481S), [33P]-ATP filter-binding, at Reaction Biology Corporation; type: biochemical; conditions: 10 μM ATP, 6 nM BTK (C481S), pEY substrate, 20 min pre-incubation, 120 min reaction
Procedure: The kinase activity of BTK (C481S) was assayed at Reaction Biology Corporation. The substrate in the BTK (C481S) reaction, pEY (poly[Glu:Tyr] (4:1)) (Sigma, Cat. #P7244-250MG), was prepared in fresh reaction buffer (20 mM Hepes (pH 7.5), 10 mM MgCl2, 1 mM EGTA, 0.02% Brij35, 0.02 mg/ml BSA, 0.1 mM Na3VO4, 2 mM DTT, 1% DMSO). BTK(C481S) (SignalChem, Cat. #B10-12CH) was delivered into the substrate solution and mixed gently. The final concentrations of BTK (C481S) and the substrate in the reaction mixture were 6 nM and 0.2 mg/ml, respectively. Compounds were tested in 10-point concentration/response mode with 3-fold serial dilution steps starting at 1 μM.
Compounds in 100% DMSO were delivered into the kinase reaction mixture by acoustic liquid delivery technology (Echo550; nanoliter range) and incubated for 20 min at room temperature. 10 μM [^33P]-ATP (ATP: Sigma, Cat #: A7699; [^33P]-ATP: Hartmann Analytic, Cat #: SCF-301-12) was delivered into the reaction mixture to initiate the reaction. The mixture was incubated for 120 min at room temperature. Radioactivity was detected utilizing a proprietary filter-binding method. Kinase activity data were expressed as the percent remaining kinase activity in test samples compared to vehicle (DMSO) reactions. IC50 values were obtained using GraphPad Prism software.

[2] = test system: DOHH2 cells; test: Cell proliferation assay in DOHH2 cells (MTS); type: cell-based; conditions: Homo sapiens, DOHH-2, inhibition of DOHH2 cell proliferation, 120 h incubation
Procedure: To investigate whether a compound is able to inhibit the activity of BTK in cells, a mechanism-based assay using DOHH2 (DSMZ catalog #: ACC47) cell was developed. In this assay, inhibition of BTK was detected by the inhibition of DOHH2 cells proliferation. Cells were collected and plated onto 96-well plates at the optimized cell density (5000 cells/well). Plates were incubated at 37° C., with 5% CO2 for 4h. Compounds were serially diluted and added to the plates with the final concentrations as 10000, 3333.3, 1111.1, 370.4, 123.5, 41.2, 13.7, 4.6 and 1.5 nM. Plates were incubated at 37° C., with 5% CO2 for 120 h. An aliquot of 20 μL MTS/100 μL medium mixture solution were added to each well and the plates were incubated for exactly 2 h. The reaction was stopped by adding 25 μL 10% SDS to each well. The absorbance was measured by a microplate reader at 490 nm and 650 nm (reference wavelength). IC50 was calculated using GraphPad Prism 5.0.

[3] = Pharmacokinetics in male Sprague-Dawley rats, single oral gavage; type: in vivo; conditions: 5 mg/kg; for AUC(0-t) / half-life: rat, plasma
Procedure: The purpose of this study was to determine the pharmacokinetics of Example 1 and Example 2 in male Sprague-Dawley rats (Supplied by Beijing Vital River Laboratory Animal Technology Co., Ltd.).
Animals were administered with Example 1 and Example 2 by single oral gavage (PO) administration at 5 mg/kg, respectively, which was formulated in 10% DMSO (Sigma, Batch #STBJ2353): 60% PEG400 (PanReac AppliChem, Batch #1480132): 30% water at 2 mg/mL as a solution. Blood samples were collected at predose, 0.083, 0.25, 0.5, 1, 2, 4, 8, 12 and 24 hours post-dose. Concentrations of Example 1 and Example 2 in plasma were determined by LC/MS/MS (LC: Waters UPLC; MS: API4000).

[4] = Pharmacokinetics in male Beagle dogs, single oral gavage; type: in vivo
Procedure: The purpose of this study was to determine the pharmacokinetics of Example 1 in male Beagle dogs (Supplied by Marshall Bioresources, Beijing, China).
Animals were administered with Example 1 and Reference Compound 1 by single oral gavage (PO) administration at 3 mg/kg and 5 mg/kg, respectively, which was formulated in 10% DMSO (Sigma, Batch #STBJ2353): 60% PEG400 (PanReac AppliChem, Batch #1480132): 30% water at 5 mg/mL as a solution. Blood samples were collected at predose, 0.083, 0.25, 0.5, 1, 2, 4, 8, 12 and 24 hours post-dose. Concentrations of Example 1 and Reference Compound 1 in plasma were determined by LC/MS/MS (LC: Waters; MS: API4000).

Sequence of BTK (C481S) (Q06187 whole entry C481S): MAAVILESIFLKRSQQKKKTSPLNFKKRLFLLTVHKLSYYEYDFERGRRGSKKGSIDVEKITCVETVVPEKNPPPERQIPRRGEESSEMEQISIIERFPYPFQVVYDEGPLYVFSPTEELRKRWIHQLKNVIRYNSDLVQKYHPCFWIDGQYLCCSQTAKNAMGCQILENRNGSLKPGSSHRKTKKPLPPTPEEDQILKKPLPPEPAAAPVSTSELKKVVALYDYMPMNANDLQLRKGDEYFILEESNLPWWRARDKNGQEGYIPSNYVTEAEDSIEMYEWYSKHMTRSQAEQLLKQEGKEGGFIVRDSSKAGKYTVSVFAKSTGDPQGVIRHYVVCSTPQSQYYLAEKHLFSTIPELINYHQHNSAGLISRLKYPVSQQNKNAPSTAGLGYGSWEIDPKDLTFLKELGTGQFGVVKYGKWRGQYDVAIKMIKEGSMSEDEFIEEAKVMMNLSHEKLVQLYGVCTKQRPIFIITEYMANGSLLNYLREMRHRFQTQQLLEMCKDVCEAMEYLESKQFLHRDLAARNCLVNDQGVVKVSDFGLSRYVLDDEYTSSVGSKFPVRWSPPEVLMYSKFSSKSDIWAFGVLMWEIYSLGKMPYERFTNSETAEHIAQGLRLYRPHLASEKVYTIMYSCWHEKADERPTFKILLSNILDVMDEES

SMILES	IC50 [1]	IC50 [2]	F [3]	AUC(0-t) [3]	half-life [3]	further results
CS(=O)(=O)NC[C@@H]1CC[C@@H](Nc2c(F)cnc3[nH]cc(C(=O)c4ccc(Oc5c(F)cccc5F)cc4F)c23)CO1 [Example 1, N-(((2S,5R)-5-((3-(4-(2,6-difluorophenoxy)-2-fluorobenzoyl)-5-fluoro-1H-pyrrolo[2,3-b]pyridin-4-yl)amino)tetrahydro-2H-pyran-2-yl)methyl)methanesulfonamide]	1.5 nM	1 nM	24.9%	4950 ng·h/mL	3.69 h	F ([4]; 3 mg/kg): 26.0%; AUC(0-t) ([4]; dog, 3 mg/kg, plasma): 3820 ng·h/mL; half-life ([4]; dog, 3 mg/kg, plasma): 15.6 h
CS(=O)(=O)NC[C@@H]1CC[C@@H](Nc2c(F)cnc3[nH]cc(C(=O)c4ccc(Oc5ccccc5F)cc4F)c23)CO1 [Example 2, N-(((2S,5R)-5-((5-fluoro-3-(2-fluoro-4-(2-fluorophenoxy)benzoyl)-1H-pyrrolo[2,3-b]pyridin-4-yl)amino)tetrahydro-2H-pyran-2-yl)methyl)methanesulfonamide]	0.66 nM	27 nM	31%	8340 ng·h/mL	3.08 h	
CCS(=O)(=O)NC[C@@H]1CC[C@@H](Nc2c(F)cnc3[nH]cc(C(=O)c4ccc(Oc5ccccc5F)cc4F)c23)CO1 [Example 3, N-(((2S,5R)-5-((5-fluoro-3-(2-fluoro-4-(2-fluorophenoxy)benzoyl)-1H-pyrrolo[2,3-b]pyridin-4-yl)amino)tetrahydro-2H-pyran-2-yl)methyl)ethanesulfonamide]		1 nM				
CCS(=O)(=O)NC[C@@H]1CC[C@@H](Nc2c(F)cnc3[nH]cc(C(=O)c4ccc(Oc5c(F)cccc5F)cc4F)c23)CO1 [Example 6, N-(((2S,5R)-5-((3-(4-(2,6-difluorophenoxy)-2-fluorobenzoyl)-5-fluoro-1H-pyrrolo[2,3-b]pyridin-4-yl)amino)tetrahydro-2H-pyran-2-yl)methyl)ethanesulfonamide]		1 nM				
O=C(c1ccc(Oc2c(F)cccc2F)cc1F)c1c[nH]c2ncc(F)c(N[C@@H]3CC[C@@H](CNS(=O)(=O)C4CC4)OC3)c12 [Example 8, N-(((2S,5R)-5-((3-(4-(2,6-difluorophenoxy)-2-fluorobenzoyl)-5-fluoro-1H-pyrrolo[2,3-b]pyridin-4-yl)amino)tetrahydro-2H-pyran-2-yl)methyl)cyclopropanesulfonamide]		1 nM				
CCOc1cnc2[nH]cc(C(=O)c3ccc(Oc4ccccc4F)cc3F)c2c1N[C@@H]1CC[C@@H](CO)OC1 [Reference Compound 1, (5-ethoxy-4-(((3R,6S)-6-(hydroxymethyl)tetrahydro-2H-pyran-3-yl)amino)-JH-pyrrolo[2,3-b]pyridin-3-yl)(2-fluoro-4-(2-fluorophenoxy)phenyl)methanone, reference compound]						F ([4]; 5 mg/kg): 9.82%; AUClast ([4]; 5 mg/kg, plasma): 200 ng·h/mL; T1/2 ([4]; 5 mg/kg, plasma): 3.39 h
